Measurements published in PMC11368737, “Effects of three flavonoids on the metabolism of lenvatinib” (Frontiers in Pharmacology, 2024).
Like-named read-outs stand apart in the source and are kept apart here.

Legend:
[1] = tested on: lenvatinib metabolism (M1 formation) in RLM; assay: Inhibition of lenvatinib metabolism (M1 formation) by flavonoids in rat liver microsomes; conditions: rat
Text: (§1) The experimental data were expressed as mean ± standard deviation (mean ± S.D.). Through GraphPad Prism 9.5 software, the Michaelis-Menten curves of lenvatinb in RLM and HLM were drawn based on the Michaelis-Menten analysis curve fitting program in nonlinear regression analysis, and the log(inhibitor) vs normalized response mode was applied to acquire the corresponding IC50 curve diagram. The Lineweaver-Burk plot was got by the Lineweaver-Burk double reciprocal mode, and its subsidiary plot was drawn on the slope (Km/Vmax vs. inhibitor concentration) and y-intercept (1/Vmax vs. inhibitor concentration) of the drawn line. Besides, the mean plasma concentration-time curve of lenvatinib was plotted based on the pharmacokinetic data. Drug and Statistics (DAS) software (version 3.0 software, Mathematical Pharmacology Professional Committee of China, Shanghai, China) with non-compartment model analyzes was used to obtain the corresponding pharmacokinetic parameters. SPSS (version 24.0; SPSS Inc., Chicago, IL, United States of America) with one-way ANOVA was used to compare the difference between the combination and the single group, respectively. p < 0.05, it was considered statistically significant.

[2] = tested on: lenvatinib metabolism (M1 formation) in HLM; assay: Inhibition of lenvatinib metabolism (M1 formation) by flavonoids in human liver microsomes; type: in vitro ADME; conditions: human; for IC50 at 30 min: 0.3 mg/mL HLM, lenvatinib 16.9 μM, mean ± S.D., read-out: IC50 to inhibit the metabolism of lenvatinib in HLM
[3] = set-up: method as in Hong et al., 2014; conditions: rats; ref Hong et al., 2014; cited from earlier work
[4] = tested on: tofacitinib metabolism in RLM; set-up: method as in Ye et al., 2024; conditions: ref Ye et al., 2024, cited from earlier work
[5] = tested on: tofacitinib metabolism in HLM; set-up: method as in Ye et al., 2024; conditions: ref Ye et al., 2024, cited from earlier work
CYP3A4 [6] = assay: in vitro; conditions: rat; for IC50 at 30 min: microsomes
Protocol: (§2) To determine the enzymatic kinetic parameter (the Michaelis constant, Km) of lenvatinib in RLM and HLM, we established a 200 μL enzyme reaction system, which included 2–100 μM lenvatinib, 0.3 mg/mL RLM or HLM, 0.1 M Tris-HCl, and 1 mM NADPH. […] The mixed probe substrates were added to an incubation mixture containing 0.3 mg/mL RLM, 0.1 M PBS, and 1 mM NADPH. First, the mixture without NADPH was pre-incubated at 37°C for 5 min, and then 10 μL NADPH was added to start the reaction. After incubation for 30 min, the samples were immediately freezed to −80°C to terminate the reaction. About 20 min later, 300 μL acetonitrile and 10 μL regorafenib (200 ng/mL) as IS were added to precipitate the protein. When the samples were fully vortexed for 2 min and completely mixed, the mixture was centrifuged for 10 min at 13,000 rpm. In the end, each supernatant was detected and analyzed by UPLC-MS/MS.
(§3) To explore the ability of three flavonoids to inhibit lenvatinib metabolism in vitro, we measured the half-maximal inhibitory concentration (IC50) of luteolin, myricetin, and fisetin, respectively. The 200 μL incubation system consisted of Tris-HCl (0.1 M), RLM or HLM (0.3 mg/mL), NADPH (1 mM), lenvatinib (23.5 μM in RLM or 16.9 μM in HLM) and three flavonoids (0, 0.01, 0.1, 1, 10, 25, 50 and 100 μM). To evaluate the effects of three flavonoids on CYP1A2, CYP2B6 and CYP3A4 activity in RLM, the specific CYP isoform probe mixture was incubated with a single inhibitor and the specific CYP isoform probe was used at a concentration equal to or slightly below its corresponding Km value ([Dinger et al., 2014]). […] Finally, the samples were processed as mentioned above.

CYP1A2 [7] = biological target: T1, CYP1A2 (Rattus norvegicus, UniProt P04799); assay: CYP1A2 activity in RLM, mixed probe method (melatonin); conditions: for inhibition at 30 min, 100 µM: rat
T1 sequence (P04799 1-513): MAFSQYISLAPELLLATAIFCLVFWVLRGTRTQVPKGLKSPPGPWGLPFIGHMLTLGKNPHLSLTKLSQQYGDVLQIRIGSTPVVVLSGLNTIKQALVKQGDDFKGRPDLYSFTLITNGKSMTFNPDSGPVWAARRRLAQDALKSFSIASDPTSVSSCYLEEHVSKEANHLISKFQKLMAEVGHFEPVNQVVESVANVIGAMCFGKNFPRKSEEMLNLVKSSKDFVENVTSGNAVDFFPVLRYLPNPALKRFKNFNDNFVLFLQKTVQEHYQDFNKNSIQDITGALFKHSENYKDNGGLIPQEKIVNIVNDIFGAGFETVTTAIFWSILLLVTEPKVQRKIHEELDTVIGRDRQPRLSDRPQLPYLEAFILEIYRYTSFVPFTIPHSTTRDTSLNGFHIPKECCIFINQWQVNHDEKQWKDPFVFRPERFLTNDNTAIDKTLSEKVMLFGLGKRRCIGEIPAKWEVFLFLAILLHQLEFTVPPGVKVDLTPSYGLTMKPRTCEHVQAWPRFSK
Protocol: as §2, §3

CYP2B6 = CYP2B6 activity in RLM, mixed probe method (bupropion); conditions: for IC50 at 30 min: rat
[8] = tested on: lenvatinib metabolism in rat liver microsomes (RLM); assay: Inhibition of lenvatinib metabolism (M1 formation) by flavonoids in rat liver microsomes; conditions: Lineweaver-Burk plot
Text: as §1

[9] = tested on: lenvatinib metabolism in human liver microsomes (HLM); assay: Inhibition of lenvatinib metabolism (M1 formation) by flavonoids in human liver microsomes; type: in vitro ADME; conditions: for Inhibitory type on lenvatinib metabolism in HLM: Lineweaver-Burk plot
CYP3A4 [10] = tested on: CYP3A4
Protocol: as §2, §3

CYP1A2 [11] = tested on: CYP1A2; set-up: method as in Cao et al., 2017; Shi et al., 2024; conditions: ref Cao et al., 2017; Shi et al., 2024; read-out: IC50 on CYP1A2 in vitro; cited from earlier work
CYP1A2 [12] = tested on: CYP1A2; set-up: method as in Vavrová et al., 2022; Liu et al., 2023; conditions: CYP1A2 selective inhibitor; ref Vavrová et al., 2022; Liu et al., 2023; cited from earlier work
[13] = Metabolic stability of lenvatinib in RLM with or without flavonoids; type: in vitro ADME; conditions: rat, rat liver microsomes, 1.0 μM lenvatinib, 0.3 mg/mL RLM, with or without flavonoid, n = 3
Protocol: Using the UPLC-MS/MS technique, metabolic stability tests were carried out to monitor any discernible drop in lenvatinib concentration in the RLM matrix ([Shang et al., 2021]). 1.0 μM lenvatinib was incubated with 0.3 mg/mL RLM and 1 mM NADPH in 0.1 M Tris-HCl buffer until a final volume of 0.2 mL was reached. NADPH was introduced following a 5 min pre-incubation period, and the reaction was stopped at various intervals of 0, 5, 10, 45, 60, and 90 min. Similarly, three flavonoids were added to the above incubation system to study the effects of the three flavonoids on the metabolic stability of lenvatinib. The post-treatment method was same as the above enzyme reaction. The metabolic stability curve for lenvatinib was constructed from the obtained data.
The relative content of lenvatinib in the RLM matrix was calculated after stopping the metabolic reaction at different time periods. The relative content was equal to the percentage of the remaining lenvatinib relative to zero time (representing 100%). […] The in vitro half-life (t1/2) was obtained using the equation: t1/2 = 0.693/k; V (mL/mg) = volume of incubation ([Kaci et al., 2023])/protein in the incubation ([Rumgay et al., 2022]); intrinsic clearance (CLint) (mL/min/mg protein) = V × 0.693/t1/2. […] The metabolic stability results of three flavonoids co-incubated with lenvatinib, including t1/2 and clearance were shown in Table 3.

[14] = Pharmacokinetics of lenvatinib in SD rats with or without luteolin or myricetin; conditions: Sprague-Dawley, rat, in vivo, po, 1.2 mg/kg
Protocol: Fifteen SD rats were randomly divided into three groups (n = 5): Group A, lenvatinib (1.2 mg/kg, p. o.) ([Cui et al., 2021]); Group B, lenvatinib (1.2 mg/kg, p. o.) + luteolin (30 mg/kg, p. o.) ([Chen et al., 2010]); Group C, lenvatinib (1.2 mg/kg, p. o.) + myricetin (50 mg/kg, p. o.) ([Lan et al., 2017]). Three drugs were suspended in 0.5% carboxymethylcellulose sodium salt (CMC-Na) solution, respectively, prepared when used. Before the formal experiment, SD rats fasted for 12 h to avoid the effect of food intake on drug absorption, but were free to drink water. At the beginning of the experiment, group A was given equal volumes of 0.5% CMC-Na solution, while group B and C were received luteolin and myricetin, respectively. After 30 min, all three groups were gavaged with a single dose of 1.2 mg/kg lenvatinib. At 1, 1.5, 2, 3, 4, 6, 8, 12, and 24 h after lenvatinib administration, blood samples were collected from the tail vein into a 1.5 mL EP tube treated with heparin, respectively. The 50 μL plasma supernatant was precisely extracted and put into a new 1.5 mL EP tube after centrifugation at 8,000 rpm for 10 min. […] Finally, the liquid supernatant was taken to UPLC-MS/MS to detect the concentration of the analytes.

[15] = Michaelis-Menten kinetics of lenvatinib in HLM; type: in vitro ADME, human; conditions: human, human liver microsomes; 2–100 μM lenvatinib, 0.3 mg/mL HLM
Protocol: (§4) To determine the enzymatic kinetic parameter (the Michaelis constant, Km) of lenvatinib in RLM and HLM, we established a 200 μL enzyme reaction system, which included 2–100 μM lenvatinib, 0.3 mg/mL RLM or HLM, 0.1 M Tris-HCl, and 1 mM NADPH. […] First, the mixture without NADPH was pre-incubated at 37°C for 5 min, and then 10 μL NADPH was added to start the reaction. After incubation for 30 min, the samples were immediately freezed to −80°C to terminate the reaction. About 20 min later, 300 μL acetonitrile and 10 μL regorafenib (200 ng/mL) as IS were added to precipitate the protein. When the samples were fully vortexed for 2 min and completely mixed, the mixture was centrifuged for 10 min at 13,000 rpm. In the end, each supernatant was detected and analyzed by UPLC-MS/MS.
(§5) The experimental data were expressed as mean ± standard deviation (mean ± S.D.). Through GraphPad Prism 9.5 software, the Michaelis-Menten curves of lenvatinb in RLM and HLM were drawn based on the Michaelis-Menten analysis curve fitting program in nonlinear regression analysis, and the log(inhibitor) vs normalized response mode was applied to acquire the corresponding IC50 curve diagram. […]

HLM = assay: Michaelis-Menten kinetics of lenvatinib in HLM; type: in vitro ADME, human; conditions: HLM vs RLM
Protocol: as §4, §5

[16] = set-up: method as in Xia et al., 2023; conditions: co-administered azole; ref Xia et al., 2023; cited from earlier work
not read = substrate: COc1ccc2[nH]cc(CCNC(C)=O)c2c1; assay: not read; conditions: other: melatonin, mixed method, RLM; 37.0 °C
Protocol: as §2, §3

[17] = human liver microsomes, probe lenvatinib 16.9 μM
[18] = rat liver microsomes, probe bupropion (8.0 μM)

O=c1c(O)c(-c2cc(O)c(O)c(O)c2)oc2cc(O)cc(O)c12 [myricetin]
IC50 at 30 min [1]: 11.2 ± 0.81 µM
IC50 at 30 min [2]: 12.3 ± 1.21 µM
Absolute bioavailability [3]: less than 10%
Inhibition type on tofacitinib in RLM [4]: non-competitively
IC50 ([4]; read-out: IC50 for inhibition of tofacitinib in RLM): 9.27 µM
Inhibition type on tofacitinib in HLM [5]: non-competitively
IC50 ([5]; read-out: IC50 for inhibition of tofacitinib in HLM): 2.35 µM
IC50 at 30 min (CYP3A4 [6]): 5.11 ± 0.11 µM
IC50 (CYP1A2 [7]): 5.61 ± 0.25 µM
inhibition at 30 min, 100 µM (CYP1A2 [7]; microsomes): 98.1%
IC50 at 30 min (CYP2B6; microsomes, IC50 for CYP2B6 in RLM, probe 8.0 μM bupropion, mixed probes, 0.3 mg/mL RLM): > 20 µM
IC50 (CYP2B6; read-out: IC50 for CYP2B6 in RLM, probe 8.0 μM bupropion, mixed probes, 0.3 mg/mL RLM): 25.6 ± 1.73 µM

O=c1cc(-c2ccc(O)c(O)c2)oc2cc(O)cc(O)c12 [luteolin]
Inhibitory type on lenvatinib metabolism in RLM [8]: un-competitive
Inhibitory type on lenvatinib metabolism in RLM ([8]; listed as Luteolin): un-competitive inhibition
IC50 at 30 min [2, 17]: 6.89 ± 0.43 µM
Ki at 30 min ([2]; human liver microsomes, probe lenvatinib 4.23, 8.45, 16.90, 33.80 μM, Lineweaver-Burk secondary plot, n = 3): 14.3 ± 4.85 µM
Inhibitory type on lenvatinib metabolism in HLM [9]: mixed
Inhibitory type on lenvatinib metabolism in HLM ([9]; listed as Luteolin): mixed type of non-competitive and competitive inhibition
α for inhibition of lenvatinib metabolism in HLM ([9]; αKi/Ki): 1.34
Degree of inhibition on CYP3A4 (CYP3A4 [10]; microsomes): weak inhibition
IC50 (CYP1A2 [11]): < 10 µM
IC50 at 30 min (CYP3A4 [6]): 49.4 ± 2.45 µM
IC50 (CYP1A2 [7]): 0.81 ± 0.07 µM
Degree of inhibition on CYP1A2 (CYP1A2 [7]; RLM, 100 μM): strong inhibition
inhibition at 30 min, 100 µM (CYP1A2 [7]; rat liver microsomes, probe melatonin (30.0 μM)): 96.9%
Degree of inhibition on CYP2B6 (CYP2B6; RLM): moderate inhibition
IC50 at 30 min (CYP2B6; [18]): 18.9 ± 1.33 µM

O=c1c(O)c(-c2ccc(O)c(O)c2)oc2cc(O)ccc12 [fisetin]
IC50 at 30 min [2, 17]: 21.2 ± 0.93 µM
Degree of inhibition on CYP3A4 (CYP3A4 [10]; RLM): weak inhibition
IC50 at 30 min (CYP3A4 [6]): 74.2 ± 2.16 µM
IC50 (CYP1A2 [7]): 5.89 ± 0.13 µM
inhibition at 30 min, 100 µM (CYP1A2 [7]; microsomes): 93.6%
IC50 at 30 min (CYP2B6; [18]): 29.4 ± 1.36 µM

Cc1nc2c([nH]1)c(=O)n(C)c(=O)n2Cc1ccco1 [Furafylline]
Inhibitory effect on the formation of O-desmethyl lenvatinib (CYP1A2 [12]): 37%

Cc1ncc2n1-c1ccc(Cl)cc1C(c1ccccc1F)=NC2 [midazolam, reference compound]
Km at 30 min (CYP3A4 [6]): 1.9 ± 0.13 µM

COc1cc2nccc(Oc3ccc(NC(=O)NC4CC4)c(Cl)c3)c2cc1C(N)=O [lenvatinib, Lenvatinib]
microsomal CLint at 1 μM [13]: 2.3 ± 0.2 µL/min/mg
half-life at 1 μM ([13]; read-out: in vitro t1/2 of lenvatinib): 17 ± 1.55 h
AUC(0-inf) [14]: 1410 ng·h/mL
AUC(0-t) [14]: 1260 ng·h/mL
CL/F [14]: 14.3 mL/min/kg
Cmax [14]: 147 ± 20.4 ng/mL
Tmax [14]: 5.6 ± 0.89 h
t1/2z of lenvatinib [14]: 4.14 ± 1.57 h
Km at 30 min [15]: 16.9 ± 2.42 µM
Km in HLM lower than in RLM (HLM): 28.1%

C[C@@H](c1nc(-c2ccc(C#N)cc2)cs1)[C@](O)(Cn1cncn1)c1cc(F)ccc1F [isavuconazole]
Improvement of plasma exposure to lenvatinib [16]: 50.20%

CC(=O)N1CCN(c2ccc(OCC3COC(Cn4ccnc4)(c4ccc(Cl)cc4Cl)O3)cc2)CC1 (stereo not drawn) [ketoconazole]
Improvement of plasma exposure to lenvatinib [16]: 3.01 times

B1: CYP1A2 (Rattus norvegicus) (protein)
chain: MAFSQYISLAPELLLATAIFCLVFWVLRGTRTQVPKGLKSPPGPWGLPFIGHMLTLGKNPHLSLTKLSQQYGDVLQIRIGSTPVVVLSGLNTIKQALVKQGDDFKGRPDLYSFTLITNGKSMTFNPDSGPVWAARRRLAQDALKSFSIASDPTSVSSCYLEEHVSKEANHLISKFQKLMAEVGHFEPVNQVVESVANVIGAMCFGKNFPRKSEEMLNLVKSSKDFVENVTSGNAVDFFPVLRYLPNPALKRFKNFNDNFVLFLQKTVQEHYQDFNKNSIQDITGALFKHSENYKDNGGLIPQEKIVNIVNDIFGAGFETVTTAIFWSILLLVTEPKVQRKIHEELDTVIGRDRQPRLSDRPQLPYLEAFILEIYRYTSFVPFTIPHSTTRDTSLNGFHIPKECCIFINQWQVNHDEKQWKDPFVFRPERFLTNDNTAIDKTLSEKVMLFGLGKRRCIGEIPAKWEVFLFLAILLHQLEFTVPPGVKVDLTPSYGLTMKPRTCEHVQAWPRFSK
Km (not read): 32.39 ± 0.58 µM
